In patent publication US10807944B2, “HDAC inhibitor compounds and methods of treatment” (priority 2014, dated 2020):
Where two headings read alike, the source gives them in different places.

Assays:
HDAC9 = HDAC9 (Homo sapiens (Human), UniProt Q9UKV0); assay: HDAC9 in vitro inhibition, dose response; type: biochemical; conditions: Table 1; read-out: Inhibitory Potency (IC50) HDAC 9
[1] = mouse, in vivo, po
HDAC10 = HDAC10 (Homo sapiens (Human), UniProt Q969S8); assay: HDAC10 in vitro inhibition, dose response; type: biochemical; conditions: Table 1; read-out: Inhibitory Potency (IC50) HDAC 10
HDAC1 [2] = target: T1, HDAC1 (Homo sapiens (Human), UniProt Q13547); assay: HDAC-1 inhibition potency, luminescence readout; type: biochemical; conditions: Table 6, luminescence readout
T1 sequence (Q13547 whole entry): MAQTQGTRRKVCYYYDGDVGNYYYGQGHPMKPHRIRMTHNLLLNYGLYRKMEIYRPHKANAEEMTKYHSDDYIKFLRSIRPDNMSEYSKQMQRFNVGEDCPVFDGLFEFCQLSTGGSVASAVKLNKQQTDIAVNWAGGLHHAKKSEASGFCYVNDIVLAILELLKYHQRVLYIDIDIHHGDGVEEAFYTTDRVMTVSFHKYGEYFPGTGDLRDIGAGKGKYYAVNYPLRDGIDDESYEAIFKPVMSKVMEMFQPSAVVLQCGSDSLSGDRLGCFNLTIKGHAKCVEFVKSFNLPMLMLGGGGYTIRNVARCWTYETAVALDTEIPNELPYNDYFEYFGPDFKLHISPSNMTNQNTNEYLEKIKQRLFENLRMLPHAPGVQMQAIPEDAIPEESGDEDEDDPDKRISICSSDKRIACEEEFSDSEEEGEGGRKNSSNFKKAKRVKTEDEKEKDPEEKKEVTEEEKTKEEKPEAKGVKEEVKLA
From the text: (§1) Compounds were examined for their HDAC inhibitory activity and their effect on cancer cell viability (MDA-MB-231 cells).

HDAC6 = HDAC6 (Homo sapiens (Human), UniProt Q9UBN7); assay: HDAC6 in vitro inhibition, dose response; type: biochemical
HDAC6, sequence (Q9UBN7 whole entry): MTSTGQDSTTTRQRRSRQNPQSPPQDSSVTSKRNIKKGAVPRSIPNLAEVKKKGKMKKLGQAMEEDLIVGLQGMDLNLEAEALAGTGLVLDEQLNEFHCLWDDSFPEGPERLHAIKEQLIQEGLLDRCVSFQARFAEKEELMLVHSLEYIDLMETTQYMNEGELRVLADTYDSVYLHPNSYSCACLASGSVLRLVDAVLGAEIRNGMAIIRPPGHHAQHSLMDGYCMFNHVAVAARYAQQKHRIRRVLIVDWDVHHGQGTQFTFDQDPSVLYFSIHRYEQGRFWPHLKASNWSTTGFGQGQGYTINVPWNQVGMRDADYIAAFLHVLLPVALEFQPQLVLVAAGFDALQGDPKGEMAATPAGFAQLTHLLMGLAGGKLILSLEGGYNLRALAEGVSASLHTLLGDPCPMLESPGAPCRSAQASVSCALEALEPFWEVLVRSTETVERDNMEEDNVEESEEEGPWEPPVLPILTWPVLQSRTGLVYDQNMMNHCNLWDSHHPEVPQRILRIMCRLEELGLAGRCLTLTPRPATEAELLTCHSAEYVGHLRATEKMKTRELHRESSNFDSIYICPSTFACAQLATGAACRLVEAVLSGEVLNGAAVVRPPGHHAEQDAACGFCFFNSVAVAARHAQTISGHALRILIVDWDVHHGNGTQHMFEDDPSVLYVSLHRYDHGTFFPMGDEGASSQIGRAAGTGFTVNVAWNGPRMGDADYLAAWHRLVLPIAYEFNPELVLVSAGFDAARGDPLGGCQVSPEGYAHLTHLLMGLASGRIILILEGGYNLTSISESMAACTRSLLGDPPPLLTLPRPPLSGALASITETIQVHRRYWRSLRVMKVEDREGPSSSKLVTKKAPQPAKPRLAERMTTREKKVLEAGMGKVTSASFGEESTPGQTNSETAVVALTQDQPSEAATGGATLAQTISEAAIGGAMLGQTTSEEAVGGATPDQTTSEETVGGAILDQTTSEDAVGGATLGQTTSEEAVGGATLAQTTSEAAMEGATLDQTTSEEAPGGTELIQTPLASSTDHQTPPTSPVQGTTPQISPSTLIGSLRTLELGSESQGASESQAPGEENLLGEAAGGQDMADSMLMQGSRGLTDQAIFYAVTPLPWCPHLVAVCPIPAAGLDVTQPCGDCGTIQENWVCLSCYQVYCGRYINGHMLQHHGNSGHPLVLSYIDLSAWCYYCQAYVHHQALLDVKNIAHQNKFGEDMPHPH

HCT116 cells [3] = assay: Histone acetylation by Western blotting; type: cell-based
HDAC2 [4] = target: T2, HDAC2 (Homo sapiens (Human), UniProt Q92769); assay: HDAC2 in vitro inhibition, dose response; type: biochemical
T2 sequence (Q92769 whole entry): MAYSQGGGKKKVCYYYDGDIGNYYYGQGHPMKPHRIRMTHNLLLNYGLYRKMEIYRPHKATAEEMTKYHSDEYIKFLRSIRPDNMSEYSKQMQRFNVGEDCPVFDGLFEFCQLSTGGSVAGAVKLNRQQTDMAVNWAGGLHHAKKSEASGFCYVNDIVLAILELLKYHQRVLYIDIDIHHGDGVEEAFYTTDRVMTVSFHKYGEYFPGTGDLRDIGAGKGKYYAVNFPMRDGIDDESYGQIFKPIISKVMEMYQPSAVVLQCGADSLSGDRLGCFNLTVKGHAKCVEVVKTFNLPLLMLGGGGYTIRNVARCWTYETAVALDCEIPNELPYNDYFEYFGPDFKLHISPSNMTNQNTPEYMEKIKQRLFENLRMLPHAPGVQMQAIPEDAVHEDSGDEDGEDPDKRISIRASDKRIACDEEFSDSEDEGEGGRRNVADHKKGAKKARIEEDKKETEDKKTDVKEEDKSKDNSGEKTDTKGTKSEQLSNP

MDA-MB-231 cells [5] = assay: Global gene expression (Affymetrix Human Transcriptome Array 2.0) with Ingenuity Pathway Analysis; type: cell-based; conditions: 24 h; for Predicated activation state, Biological Functions / Predicated activation state, Upstream Regulators: 1 μM
HDAC1 [6] = target: T1, HDAC1; assay: HDAC1 in vitro inhibition, dose response; type: biochemical
[7] = test system: NCI-60 panel of cancer cell lines; assay: NCI-60 panel of cancer cell lines, cell growth; type: cell-based; conditions: all tested cell lines
[8] = Oral tolerability / maximal tolerated dose in mice; conditions: mouse
HDAC3 [9] = target: T3, HDAC3 (Homo sapiens (Human), UniProt O15379); assay: HDAC3 in vitro inhibition, dose response; type: biochemical
T3 sequence (O15379 whole entry): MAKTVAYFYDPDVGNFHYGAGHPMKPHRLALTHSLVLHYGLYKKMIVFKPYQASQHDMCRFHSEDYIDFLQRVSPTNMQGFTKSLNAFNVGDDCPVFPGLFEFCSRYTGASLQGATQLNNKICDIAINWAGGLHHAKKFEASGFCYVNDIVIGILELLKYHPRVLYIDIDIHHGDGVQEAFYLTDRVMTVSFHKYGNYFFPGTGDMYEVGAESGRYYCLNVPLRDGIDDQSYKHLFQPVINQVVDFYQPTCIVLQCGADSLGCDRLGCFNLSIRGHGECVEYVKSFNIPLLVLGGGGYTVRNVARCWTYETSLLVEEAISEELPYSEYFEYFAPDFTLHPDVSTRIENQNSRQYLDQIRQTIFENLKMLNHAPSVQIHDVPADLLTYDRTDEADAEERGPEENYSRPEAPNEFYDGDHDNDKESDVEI
T3 sequence (Q9Y618 395-489 partner): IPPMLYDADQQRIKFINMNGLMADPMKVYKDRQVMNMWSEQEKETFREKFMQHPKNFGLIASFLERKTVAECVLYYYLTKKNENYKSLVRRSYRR

HDAC8 = HDAC8 (Homo sapiens (Human), UniProt Q9BY41); assay: HDAC8 in vitro inhibition, dose response; type: biochemical
HDAC8, sequence (Q9BY41 whole entry): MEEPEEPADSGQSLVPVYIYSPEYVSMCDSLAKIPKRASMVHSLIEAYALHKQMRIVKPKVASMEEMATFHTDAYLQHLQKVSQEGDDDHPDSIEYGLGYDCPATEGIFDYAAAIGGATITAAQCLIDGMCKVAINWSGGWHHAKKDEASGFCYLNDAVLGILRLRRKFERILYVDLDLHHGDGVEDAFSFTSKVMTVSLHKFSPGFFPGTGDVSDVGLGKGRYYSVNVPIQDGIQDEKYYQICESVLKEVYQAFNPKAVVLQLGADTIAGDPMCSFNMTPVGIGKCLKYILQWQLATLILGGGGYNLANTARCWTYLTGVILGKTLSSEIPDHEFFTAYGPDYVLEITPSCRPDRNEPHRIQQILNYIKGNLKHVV

HDAC3 [10] = target: T3, HDAC3; assay: HDAC-3 inhibition potency, luminescence readout; type: biochemical; conditions: Table 6, luminescence readout
HepG2 cells [11] = test system: HepG2 cells
HDAC11 = HDAC11 (Homo sapiens (Human), UniProt Q96DB2); assay: HDAC11 in vitro inhibition, dose response; type: biochemical; conditions: Table 1; read-out: Inhibitory Potency (IC50) HDAC 11
in vivo = conditions: mouse, plasma, po, 80 mg/kg
HDAC5 = HDAC5 (Homo sapiens (Human), UniProt Q9UQL6); assay: HDAC5 in vitro inhibition, dose response; type: biochemical; conditions: Table 1; read-out: Inhibitory Potency (IC50) HDAC 5
CDKN1A = assay: qPCR of CDKN1A encoding p21; type: cell-based; conditions: MDA-MB-231
HepG2 cells [12] = assay: cells; conditions: Homo sapiens
MDA-MB-231 cells [13] = conditions: MDA-MB-231 monolayer scratch; UF010 at 1 μM
HCT116 and A549 cells = assay: Acetylation of non-histone proteins by Western blotting; type: cell-based
HDAC4 = HDAC4 (Homo sapiens (Human), UniProt P56524); assay: HDAC4 in vitro inhibition, dose response; type: biochemical; conditions: Table 1; read-out: Inhibitory Potency (IC50) HDAC 4
MDA-MB-468 cells = assay: Viability of MDA-MB-468 cells, with or without HDAC shRNA; conditions: for IC50: Homo sapiens
HCT116 cells [14] = assay: H3K18ac after 6 h pulse treatment and drug washout; type: cell-based
HDAC7 = HDAC7 (Homo sapiens (Human), UniProt Q8WUI4); assay: HDAC7 in vitro inhibition, dose response; type: biochemical; conditions: Table 1; read-out: Inhibitory Potency (IC50) HDAC 7
HDAC7, sequence (Q8WUI4 whole entry): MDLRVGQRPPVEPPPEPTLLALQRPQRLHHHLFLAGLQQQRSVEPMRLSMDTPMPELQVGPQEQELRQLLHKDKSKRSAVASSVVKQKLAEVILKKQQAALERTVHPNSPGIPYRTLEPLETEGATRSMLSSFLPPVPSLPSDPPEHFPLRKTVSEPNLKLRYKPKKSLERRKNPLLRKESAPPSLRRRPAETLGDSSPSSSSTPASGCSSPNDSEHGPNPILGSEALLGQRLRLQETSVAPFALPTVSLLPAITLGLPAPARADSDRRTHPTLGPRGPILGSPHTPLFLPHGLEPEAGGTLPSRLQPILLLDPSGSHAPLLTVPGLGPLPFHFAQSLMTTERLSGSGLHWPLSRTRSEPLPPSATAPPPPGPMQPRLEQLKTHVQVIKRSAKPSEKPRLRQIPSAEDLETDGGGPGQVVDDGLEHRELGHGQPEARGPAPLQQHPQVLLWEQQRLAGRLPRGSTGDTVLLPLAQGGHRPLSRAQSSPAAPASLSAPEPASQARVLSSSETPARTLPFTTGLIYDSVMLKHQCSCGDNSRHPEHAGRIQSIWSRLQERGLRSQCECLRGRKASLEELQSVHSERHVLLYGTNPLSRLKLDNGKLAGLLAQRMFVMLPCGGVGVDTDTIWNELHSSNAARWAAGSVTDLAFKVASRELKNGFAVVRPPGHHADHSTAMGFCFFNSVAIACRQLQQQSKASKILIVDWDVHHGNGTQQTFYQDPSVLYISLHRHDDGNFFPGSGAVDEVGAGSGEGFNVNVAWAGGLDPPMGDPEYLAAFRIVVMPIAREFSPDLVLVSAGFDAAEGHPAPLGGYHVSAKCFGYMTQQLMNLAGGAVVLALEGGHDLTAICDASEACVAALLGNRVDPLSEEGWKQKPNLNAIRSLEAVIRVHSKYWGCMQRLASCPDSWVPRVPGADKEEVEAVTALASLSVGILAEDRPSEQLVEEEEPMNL

HDAC2 [15] = target: T2, HDAC2; assay: HDAC-2 inhibition potency, luminescence readout; type: biochemical; conditions: Table 6, luminescence readout
From the text: as §1

MDA-MB-231 cells [16] = assay: Cell cycle analysis by FACS; type: cell-based; conditions: MDA-MB-231, 24 h, dose-dependent

HDAC9, sequence (Q9UKV0 whole entry): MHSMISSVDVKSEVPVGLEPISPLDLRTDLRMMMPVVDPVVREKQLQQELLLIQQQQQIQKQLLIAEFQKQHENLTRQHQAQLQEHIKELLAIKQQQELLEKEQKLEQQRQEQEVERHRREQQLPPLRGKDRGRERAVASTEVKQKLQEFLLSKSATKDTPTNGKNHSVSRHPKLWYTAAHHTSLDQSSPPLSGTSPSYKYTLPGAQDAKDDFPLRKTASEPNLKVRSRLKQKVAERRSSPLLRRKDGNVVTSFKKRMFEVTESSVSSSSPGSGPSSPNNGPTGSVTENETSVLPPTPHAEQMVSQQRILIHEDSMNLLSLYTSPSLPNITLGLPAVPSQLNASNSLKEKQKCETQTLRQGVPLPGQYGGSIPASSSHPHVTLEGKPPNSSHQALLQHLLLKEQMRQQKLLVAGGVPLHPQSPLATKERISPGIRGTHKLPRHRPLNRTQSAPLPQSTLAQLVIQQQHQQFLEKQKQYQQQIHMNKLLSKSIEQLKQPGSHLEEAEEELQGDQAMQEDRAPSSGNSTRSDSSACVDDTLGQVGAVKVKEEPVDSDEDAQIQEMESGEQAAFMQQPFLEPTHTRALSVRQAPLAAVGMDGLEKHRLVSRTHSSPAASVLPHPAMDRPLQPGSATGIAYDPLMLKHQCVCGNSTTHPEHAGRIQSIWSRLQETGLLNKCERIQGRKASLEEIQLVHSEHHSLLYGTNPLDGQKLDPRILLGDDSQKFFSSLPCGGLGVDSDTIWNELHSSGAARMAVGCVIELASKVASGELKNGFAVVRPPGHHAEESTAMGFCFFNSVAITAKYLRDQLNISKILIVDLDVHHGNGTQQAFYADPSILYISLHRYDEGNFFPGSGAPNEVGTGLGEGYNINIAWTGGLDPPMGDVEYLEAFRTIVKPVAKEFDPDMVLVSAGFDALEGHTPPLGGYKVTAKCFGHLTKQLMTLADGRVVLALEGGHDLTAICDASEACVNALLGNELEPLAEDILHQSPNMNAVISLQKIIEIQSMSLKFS

## CCCCNNC(=O)c1ccc(Br)cc1 [UF010, 4-bromo-N′-butylbenzohydrazide]
HDAC9
  IC50: > 100000 nM
[1]
  abnormal physical or mental behaviors: No signs
HDAC10
  IC50: 15300 nM
HDAC1 [2]
  IC50: 460 nM
HDAC6; Table 1, read-out: Inhibitory Potency (IC50) HDAC 6
  IC50: 9100 nM
HDAC6; Table 2, read-out: HDAC 6 IC50
  IC50: 9100 nM
HCT116 cells [3]; HCT116, 0.5 μM, 24 h (FIG. 1B)
  inhibition of cellular HDACs (H4K5ac, H3K18ac): potent inhibition of cellular HDACs
HCT116 cells [3]; HCT116, 1 h exposure, TSA 0.2 μM, others 2 μM (FIG. 1A)
  accumulation of acetylated histones: consistently induced the accumulation of acetylated histones at all sites examined
HDAC2 [4]; Table 1, read-out: Inhibitory Potency (IC50) HDAC 2
  IC50: 100 nM
HDAC2 [4]; Table 2, read-out: HDAC 2 IC50
  IC50: 100 nM
MDA-MB-231 cells [5]; Apoptosis
  Predicated activation state, Biological Functions: Activated
MDA-MB-231 cells [5]; Butyric acid
  Predicated activation state, Upstream Regulators: Activated
MDA-MB-231 cells [5]; Cell cycle progression
  Predicated activation state, Biological Functions: Suppressed
MDA-MB-231 cells [5]; Cell survival
  Predicated activation state, Biological Functions: Suppressed
MDA-MB-231 cells [5]; Cisplatin
  Predicated activation state, Upstream Regulators: Activated
MDA-MB-231 cells [5]; ERK1/2
  Predicated activation state, Upstream Regulators: Activated
MDA-MB-231 cells [5]; HDAC1
  Predicated activation state, Upstream Regulators: Suppressed
MDA-MB-231 cells [5]; HDAC2
  Predicated activation state, Upstream Regulators: Suppressed
MDA-MB-231 cells [5]; KRAS
  Predicated activation state, Upstream Regulators: Suppressed
MDA-MB-231 cells [5]; MDA-MB-231, 1 μM
  number of genes downregulated by […]: 68
  number of genes upregulated by […]: 115
MDA-MB-231 cells [5]; MYCN
  Predicated activation state, Upstream Regulators: Suppressed
MDA-MB-231 cells [5]; Myc
  Predicated activation state, Upstream Regulators: Suppressed
MDA-MB-231 cells [5]; Necrosis
  Predicated activation state, Biological Functions: Activated
MDA-MB-231 cells [5]; Proliferation of cells
  Predicated activation state, Biological Functions: Suppressed
MDA-MB-231 cells [5]; Rb1
  Predicated activation state, Upstream Regulators: Activated
MDA-MB-231 cells [5]; Repair of DNA
  Predicated activation state, Biological Functions: Suppressed
MDA-MB-231 cells [5]; Romidepsin
  Predicated activation state, Upstream Regulators: Activated
MDA-MB-231 cells [5]; TP53
  Predicated activation state, Upstream Regulators: Activated
MDA-MB-231 cells [5]; Transcription of RNA
  Predicated activation state, Biological Functions: Suppressed
MDA-MB-231 cells [5]; Tributyrin (butyrate)
  Predicated activation state, Upstream Regulators: Activated
MDA-MB-231 cells [5]; Trichostatin A
  Predicated activation state, Upstream Regulators: Activated
MDA-MB-231 cells [5]; fulvestrant
  Predicated activation state, Upstream Regulators: Activated
HDAC1 [6]; Table 1, read-out: Inhibitory Potency (IC50) HDAC 1
  IC50: 500 nM
HDAC1 [6]; Table 2, read-out: HDAC 1 IC50
  IC50: 500 nM
[7]
  inhibition of proliferation, NCI-60 panel: inhibited proliferation of all tested cell lines
[8]; in vivo, po, 80 mg/kg
  MTD: > 80 mg/kg
[8]; oral once daily
  MTD: >80 mg/kg
HDAC3 [9]; Table 1, read-out: Inhibitory Potency (IC50) HDAC 3
  IC50: 60 nM
HDAC3 [9]; Table 2, read-out: HDAC 3 IC50
  IC50: 60 nM
HDAC8; Table 1, read-out: Inhibitory Potency (IC50) HDAC 8
  IC50: 1500 nM
HDAC8; Table 2, read-out: HDAC 8 IC50
  IC50: 1500 nM
HDAC3 [10]
  IC50: 190 nM
HepG2 cells [11]
  reduction of cytotoxic potency by HDAC2 shRNA expression: about 2 fold
HDAC11
  IC50: 44500 nM
In vivo
  AUC: 6.07 µM·h
  Cmax: 5.95 µM
  Tmax: 15 min
  half-life: 74.4 min
HDAC5
  IC50: > 100000 nM
CDKN1A
  CDKN1A (p21) expression by quantitative real-time PCR: activation of CDKN1A
HepG2 cells [12]; HepG2, read-out: IC50 Control
  IC50: 4600 nM
HepG2 cells [12]; HepG2, read-out: IC50 HDAC1 shRNA
  IC50: 5900 nM
HepG2 cells [12]; HepG2, read-out: IC50 HDAC2 shRNA
  IC50: 10900 nM
HepG2 cells [12]; HepG2, read-out: IC50 HDAC3 shRNA
  IC50: 1300 nM
MDA-MB-231 cells [13]
  cell migration to the denuded areas: markedly slowed migration
HCT116 and A549 cells; HCT116 and A549, 1 h, TSA 0.2 μM, UF010 2 μM
  α-tubulin acetylation: little to no effect
HCT116 and A549 cells; HCT116 and A549, after exposure to etoposide
  accumulation of acetylated p53: induced accumulation of acetylated p53
HCT116 and A549 cells; with or without etoposide treatment
  p53 stabilization: notably stabilized p53
HDAC4
  IC50: > 100000 nM
MDA-MB-468 cells; MDA-MB-468, read-out: IC50 Control
  IC50: 16100 nM
MDA-MB-468 cells; MDA-MB-468, read-out: IC50 HDAC2 shRNA
  IC50: 32800 nM
MDA-MB-468 cells; MDA-MB-468
  reduction of cytotoxic potency by HDAC2 shRNA expression: about 2 fold
HCT116 cells [14]; HCT116, 6 h pulse exposure
  time at which histone acetylation (H3K18ac) was induced: ≤ 6 h
HCT116 cells [14]; HCT116, 6 h pulse then drug washout, time after drug addition
  time up to which induced acetylation was maintained: up to 96 h
HCT116 cells [14]; HCT116, washout experiment
  mode of HDAC inhibition (on/off): fast-on but slow-off
HDAC7
  IC50: > 100000 nM
HDAC2 [15]
  IC50: 1330 nM
MDA-MB-231 cells [16]
  cell cycle effect: mainly blocked G1/S transition
